Assay: Appearance of formulation (state at 25° C.)
Assay type: physicochemical
Protocol: Formulations 1 to 427 shown in Tables 1A to 1D were prepared by the above-described method using the components (A) and (B) at the compounding molar ratios shown in the tables, and their states at 25° C. were observed.

[1] = 25° C., components (A) and (B) at the compounding molar ratio shown

SMILES	state at 25° C. [1]	state at 25° C. (Tables 1C-1 to 1D, compounding molar ratio (Component (A):Component (B)) 1:1)
NCCCC[C@H](N)C(=O)O.O=CO [Formulation 1]	Solid	–
CC(=O)O.NCCCC[C@H](N)C(=O)O [Formulation 2]	Solid	–
CCC(=O)O.NCCCC[C@H](N)C(=O)O [Formulation 3]	Solid	–
CCCC(=O)O.NCCCC[C@H](N)C(=O)O [Formulation 5]	Solid	–
CCCCC/C=C\C/C=C\CCCCCCCC(=O)O.NCCCC[C@H](N)C(=O)O [Formulation 8]	Solid	–
CC(O)C(=O)O.NCCCCC(N)C(=O)O (stereo not drawn) [Formulation 10]	Solid	–
NCCCC[C@H](N)C(=O)O.O=C(O)CCCCC(=O)O [Formulation 11]	Solid	–
NCCCC[C@H](N)C(=O)O.O=C(O)CCC(=O)O [Formulation 12]	Solid	–
NCCCC[C@H](N)C(=O)O.N[C@@H](CCC(=O)O)C(=O)O [Formulation 13]	Solid	–
NCCCC[C@H](N)C(=O)O.O=C(O)/C=C/C(=O)O [Formulation 14]	Liquid	–
NCCCC[C@H](N)C(=O)O.O=C(O)C[C@H](O)C(=O)O [Formulation 15]	Solid	–
NCCCC[C@H](N)C(=O)O.O=C(O)C(O)C(O)C(=O)O [Formulation 17]	Solid	–
NCCCC[C@H](N)C(=O)O.O=C(O)c1ccccc1 [Formulation 18]	Solid	–
NCCCC[C@H](N)C(=O)O.O=C(O)/C=C/c1ccccc1 [Formulation 19]	Solid	–
NCCCC[C@H](N)C(=O)O.O=C1O[C@H]([C@@H](O)CO)C(O)=C1O [Formulation 20]	Solid	–
NCCCC[C@H](N)C(=O)O.O=C1O[C@H]([C@H](O)CO)C(O)=C1O [Formulation 21]	Liquid	–
NCCCC[C@H](N)C(=O)O.O=CO.O=CO [Formulation 22]	Solid	–
CC(=O)O.CC(=O)O.NCCCC[C@H](N)C(=O)O [Formulation 23]	Solid	–
CCC(=O)O.CCC(=O)O.NCCCC[C@H](N)C(=O)O [Formulation 24]	Solid	–
CCCCCC(=O)O.CCCCCC(=O)O.NCCCC[C@H](N)C(=O)O [Formulation 25]	Solid	–
CCCC(=O)O.CCCC(=O)O.NCCCC[C@H](N)C(=O)O [Formulation 26]	Solid	–
CCCCCCCC/C=C\CCCCCCCC(=O)O.CCCCCCCC/C=C\CCCCCCCC(=O)O.NCCCC[C@H](N)C(=O)O [Formulation 28]	Solid	–
CCCCC/C=C\C/C=C\CCCCCCCC(=O)O.CCCCC/C=C\C/C=C\CCCCCCCC(=O)O.NCCCC[C@H](N)C(=O)O [Formulation 29]	Solid	–
CC(O)C(=O)O.CC(O)C(=O)O.NCCCC[C@H](N)C(=O)O [Formulation 31]	Solid	–
NCCCC[C@H](N)C(=O)O.O=C(O)CCCCC(=O)O.O=C(O)CCCCC(=O)O [Formulation 32]	Solid	–
NCCCC[C@H](N)C(=O)O.O=C(O)CCC(=O)O.O=C(O)CCC(=O)O [Formulation 33]	Solid	–

SMILES	state at 25° C. [1]	state at 25° C. (Tables 1C-1 to 1D, compounding molar ratio (Component (A):Component (B)) 1:1)
NCCCC[C@H](N)C(=O)O.N[C@@H](CCC(=O)O)C(=O)O.N[C@@H](CCC(=O)O)C(=O)O [Formulation 34]	Solid	Solid
NCCCC[C@H](N)C(=O)O.O=C(O)/C=C/C(=O)O.O=C(O)/C=C/C(=O)O [Formulation 35]	Solid	–
NCCCC[C@H](N)C(=O)O.O=C(O)C[C@H](O)C(=O)O.O=C(O)C[C@H](O)C(=O)O [Formulation 36]	Solid	–
NCCCC[C@H](N)C(=O)O.O=C(O)C(O)C(O)C(=O)O.O=C(O)C(O)C(O)C(=O)O [Formulation 38]	Solid	–
NCCCC[C@H](N)C(=O)O.O=C(O)c1ccccc1.O=C(O)c1ccccc1 [Formulation 39]	Solid	–
NCCCCC(N)C(=O)O.O=C(O)C=Cc1ccccc1.O=C(O)C=Cc1ccccc1 [Formulation 40]	Solid	–
NCCCC[C@H](N)C(=O)O.O=C1O[C@H]([C@@H](O)CO)C(O)=C1O.O=C1O[C@H]([C@@H](O)CO)C(O)=C1O [Formulation 41]	Solid	–
NCCCC[C@H](N)C(=O)O.O=C1O[C@H]([C@H](O)CO)C(O)=C1O.O=C1O[C@H]([C@H](O)CO)C(O)=C1O [Formulation 42]	Solid	–
N=C(N)NCCC[C@H](N)C(=O)O.O=CO [Formulation 43]	Solid	–
CC(=O)O.N=C(N)NCCC[C@H](N)C(=O)O [Formulation 44]	Solid	–
CCC(=O)O.N=C(N)NCCC[C@H](N)C(=O)O [Formulation 45]	Solid	–
CCCCCC(=O)O.N=C(N)NCCC[C@H](N)C(=O)O [Formulation 46]	Solid	–
CCCC(=O)O.N=C(N)NCCC[C@H](N)C(=O)O [Formulation 47]	Solid	–
N=C(N)NCCC[C@H](N)C(=O)O.O=C(O)CCCCC(=O)O [Formulation 53]	Solid	–
N=C(N)NCCC[C@H](N)C(=O)O.O=C(O)CCC(=O)O [Formulation 54]	Solid	–
N=C(N)NCCC[C@H](N)C(=O)O.N[C@@H](CCC(=O)O)C(=O)O [Formulation 55]	Solid	–
N=C(N)NCCC[C@H](N)C(=O)O.O=C(O)/C=C/C(=O)O [Formulation 56]	Solid	–
N=C(N)NCCC[C@H](N)C(=O)O.O=C(O)/C=C/c1ccccc1 [Formulation 61]	Solid	–
N=C(N)NCCCC(N)C(=O)O.O=CO.O=CO (stereo not drawn) [Formulation 64]	Solid	–
CC(=O)O.CC(=O)O.N=C(N)NCCC[C@H](N)C(=O)O [Formulation 65]	Solid	–
CCC(=O)O.CCC(=O)O.N=C(N)NCCC[C@H](N)C(=O)O [Formulation 66]	Solid	–
CCCCCC(=O)O.CCCCCC(=O)O.N=C(N)NCCC[C@H](N)C(=O)O [Formulation 67]	Solid	–
CCCC(=O)O.CCCC(=O)O.N=C(N)NCCC[C@H](N)C(=O)O [Formulation 68]	Solid	–
N=C(N)NCCC[C@H](N)C(=O)O.O=C(O)CCCCC(=O)O.O=C(O)CCCCC(=O)O [Formulation 74]	Solid	–
N=C(N)NCCC[C@H](N)C(=O)O.O=C(O)CCC(=O)O.O=C(O)CCC(=O)O [Formulation 75]	Solid	–
N=C(N)NCCC[C@H](N)C(=O)O.N[C@@H](CCC(=O)O)C(=O)O.N[C@@H](CCC(=O)O)C(=O)O [Formulation 76]	Solid	–

SMILES	state at 25° C. [1]	state at 25° C. (Tables 1C-1 to 1D, compounding molar ratio (Component (A):Component (B)) 1:1)
N=C(N)NCCC[C@H](N)C(=O)O.O=C(O)/C=C/C(=O)O.O=C(O)/C=C/C(=O)O [Formulation 77]	Solid	–
N=C(N)NCCC[C@H](N)C(=O)O.O=C(O)c1ccccc1.O=C(O)c1ccccc1 [Formulation 81]	Solid	–
N=C(N)NCCCC(N)C(=O)O.O=C(O)C=Cc1ccccc1.O=C(O)C=Cc1ccccc1 (stereo not drawn) [Formulation 82]	Solid	–
N=C(N)NCCC[C@H](N)C(=O)O.O=C1O[C@H]([C@@H](O)CO)C(O)=C1O.O=C1O[C@H]([C@@H](O)CO)C(O)=C1O [Formulation 83]	Solid	–
N[C@@H](Cc1c[nH]cn1)C(=O)O.O=CO [Formulation 85]	Solid	–
CC(=O)O.N[C@@H](Cc1c[nH]cn1)C(=O)O [Formulation 86]	Solid	–
CCC(=O)O.N[C@@H](Cc1c[nH]cn1)C(=O)O [Formulation 87]	Solid	–
CCCCCC(=O)O.N[C@@H](Cc1c[nH]cn1)C(=O)O [Formulation 88]	Solid	–
CCCC(=O)O.N[C@@H](Cc1c[nH]cn1)C(=O)O [Formulation 89]	Solid	–
CCCCCCCC/C=C\CCCCCCCC(=O)O.N[C@@H](Cc1c[nH]cn1)C(=O)O [Formulation 91]	Solid	–
CCCCC/C=C\C/C=C\CCCCCCCC(=O)O.N[C@@H](Cc1c[nH]cn1)C(=O)O [Formulation 92]	Solid	–
CC(O)C(=O)O.N[C@@H](Cc1cnc[nH]1)C(=O)O [Formulation 94]	Solid	–
N[C@@H](Cc1c[nH]cn1)C(=O)O.O=C(O)CCCCC(=O)O [Formulation 95]	Solid	–
N[C@@H](Cc1c[nH]cn1)C(=O)O.O=C(O)CCC(=O)O [Formulation 96]	Solid	–
N[C@@H](CCC(=O)O)C(=O)O.N[C@@H](Cc1c[nH]cn1)C(=O)O [Formulation 97]	Solid	–
N[C@@H](Cc1c[nH]cn1)C(=O)O.O=C(O)/C=C/C(=O)O [Formulation 98]	Solid	–
N[C@@H](Cc1cnc[nH]1)C(=O)O.O=C(O)C[C@H](O)C(=O)O [Formulation 99]	Solid	–
N[C@@H](Cc1c[nH]cn1)C(=O)O.O=C(O)C(O)C(O)C(=O)O [Formulation 101]	Solid	–
N[C@@H](Cc1c[nH]cn1)C(=O)O.O=C(O)c1ccccc1 [Formulation 102]	Solid	–
N[C@@H](Cc1c[nH]cn1)C(=O)O.O=C(O)C=Cc1ccccc1 [Formulation 103]	Solid	–
N[C@@H](Cc1c[nH]cn1)C(=O)O.O=C1O[C@H]([C@@H](O)CO)C(O)=C1O [Formulation 104]	Solid	–
N[C@@H](Cc1c[nH]cn1)C(=O)O.O=CO.O=CO [Formulation 106]	Solid	–
CCCCCC(=O)O.CCCCCC(=O)O.N[C@@H](Cc1cnc[nH]1)C(=O)O [Formulation 109]	Solid	–
CCCC(=O)O.CCCC(=O)O.N[C@@H](Cc1cnc[nH]1)C(=O)O [Formulation 110]	Solid	–
CCCCCCCC/C=C\CCCCCCCC(=O)O.CCCCCCCC/C=C\CCCCCCCC(=O)O.N[C@@H](Cc1c[nH]cn1)C(=O)O [Formulation 112]	Solid	–

— patent US20250186321A1, “FORMULATION USING AMINO ACID AND CARBOXYLIC ACID, ORGANIC SALT, AND COMPOSITION COMPRISING SAME AND USE THEREOF” (MIYOSHI OIL & FAT CO., LTD., priority 2021, published 2025)
